The values that follow are results of earlier work, collected in patent publication US20250332117A1, “Thin Films with Peroxides and Uses Thereof” (Silverpeutics, Inc., priority 2024, published 2025).

For one data set, the system named is cells. The note with it: general statement, no source given.
The subject of another data set is bacteria. The following applies: general statement, no source given.

For `OO` [peroxide, Hydrogen peroxide], the “peroxide concentration at which cell killing is observed” value with cells was “above 500 μM”. Further, in the data set with bacteria, the “peroxide concentration at which partial bacteriostatic effects are observed” value was 25 to 50 µM.
